Test results as given in patent US10106534B2 (CELGENE QUANTICEL RESEARCH, INC., priority 2014, dated 2018).

Legend:
[1] = tested on: KYSE-150 esophageal carcinoma cell line; assay: In vitro cell-based assay: cellular proliferation via BrdU incorporation (ELISA); set-up: species or system human; settings: Homo sapiens, KYSE-150, 168 hours compound incubation
In short: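 KYSE-150 cells (JMJD2C-amplified; SMAD4 and TP53 mutant), 2,000/well, were treated after overnight attachment with an 11-point series (100 μM to 2 nM) for 168 h. Proliferation was read by BrdU ELISA (2 h labelling, anti-BrdU-peroxidase, TMB, 450 nm) and IC50 fitted.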

JMJD2C = JMJD2C (Homo sapiens (Human), UniProt Q9H3R0); assay: In vitro enzyme inhibition assay for JMJD2C activity (TR-FRET); type: biochemical
In short: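 Baculovirus JMJD2C (AA 2-372), 0.3 nM, with 300 nM biotin-H3K9me3 peptide and 2 μM α-ketoglutarate in HEPES pH 7.3 containing Fe(II) and ascorbate, 30 min at room temperature, 11-point dilutions. H3K9me2 product by TR-FRET (Eu-antibody/streptavidin-APC, 665/615 ratio); IC50 fitted.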

JMJD2C, sequence (Q9H3R0 2-372): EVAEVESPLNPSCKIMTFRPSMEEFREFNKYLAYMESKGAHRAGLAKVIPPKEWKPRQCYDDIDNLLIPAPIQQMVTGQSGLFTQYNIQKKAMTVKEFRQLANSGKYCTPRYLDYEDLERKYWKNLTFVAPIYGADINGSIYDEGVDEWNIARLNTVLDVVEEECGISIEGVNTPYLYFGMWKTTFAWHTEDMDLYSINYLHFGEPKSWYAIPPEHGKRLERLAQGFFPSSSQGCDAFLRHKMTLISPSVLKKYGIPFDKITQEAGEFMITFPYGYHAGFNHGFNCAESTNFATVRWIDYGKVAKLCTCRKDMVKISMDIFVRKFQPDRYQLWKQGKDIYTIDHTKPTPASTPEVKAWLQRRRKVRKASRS

Q: Which results are given for `CN(c1ccc(C2=CCOCC2)cc1)c1ccc2c(c1)OCC[C@H]2CNc1cnccc1C(=O)O` [Example 201, 3-({[(4R)-7-{[4-(3,6-dihydro-2H-pyran-4-yl)phenyl](methyl)amino}-3,4-dihydro-2H-1-benzopyran-4-yl]methyl}amino)pyridine-4-carboxylic acid]?
A: IC50 [1]: ≤ 100 nM; IC50 (JMJD2C): 100 to 1000 nM

Q: `Cc1cccc(Sc2ccc3c(c2)CCC[C@H]3CNc2cnccc2C(=O)O)c1` [Example 69, 3-({[(1R)-6-[(3-methylphenyl)sulfanyl]-1,2,3,4-tetrahydronaphthalen-1-yl]methyl}amino)pyridine-4-carboxylic acid] was tested. Which IC50 [1] did it give?
A: 100 to 1000 nM

Q: What about the IC50 (JMJD2C) of the same compound?
A: 1000 to 10000 nM

Q: How did the IC50 [1] turn out when `COc1cc2c(cc1F)[C@H](CNc1cnccc1C(=O)O)CCC2` [Example 97, 3-({[(1R)-7-fluoro-6-methoxy-1,2,3,4-tetrahydronaphthalen-1-yl]methyl}amino)pyridine-4-carboxylic acid] was run?
A: 1000 to 10000 nM

Q: What about the IC50 (JMJD2C) of the same compound?
A: 100 to 1000 nM

Q: `O=C(O)c1ccncc1NCC1CCCc2cc(Sc3ccccn3)ccc21` (stereo not drawn) [Example 80, 3-({[6-(pyridin-2-ylsulfanyl)-1,2,3,4-tetrahydronaphthalen-1-yl]methyl}amino)pyridine-4-carboxylic acid] was tested. Which IC50 [1] did it give?
A: 1000 to 10000 nM

Q: And the IC50 (JMJD2C)?
A: 100 to 1000 nM

Q: For `COc1ccccc1-c1ccc2c(c1)OCC[C@H]2CNc1cnccc1C(=O)O` [Example 116, 3-({[(4R)-7-(2-methoxyphenyl)-3,4-dihydro-2H-1-benzopyran-4-yl]methyl}amino)pyridine-4-carboxylic acid], which IC50 [1] is on record?
A: 100 to 1000 nM

Q: And the IC50 (JMJD2C)?
A: 100 to 1000 nM

Q: `CN(c1ccc(N2CCCC2)cc1)c1ccc2c(c1)OCC[C@H]2CNc1cnccc1C(=O)O` [Example 179, 3-({[(4R)-7-{methyl[4-(pyrrolidin-1-yl)phenyl]amino}-3,4-dihydro-2H-1-benzopyran-4-yl]methyl}amino)pyridine-4-carboxylic acid] was tested. Which IC50 [1] did it give?
A: ≤ 100 nM

Q: What about the IC50 (JMJD2C) of the same compound?
A: 100 to 1000 nM

Q: For `O=C(O)c1ccncc1NCC1CCOc2cc(Br)ccc21` (stereo not drawn) [Example 14, 3-{[(7-bromo-3,4-dihydro-2H-1-benzopyran-4-yl)methyl]amino}pyridine-4-carboxylic acid], which IC50 [1] is on record?
A: > 10000 nM

Q: And the IC50 (JMJD2C)?
A: 100 to 1000 nM

Q: Which results are given for `O=C(O)c1ccncc1NCC1CCOc2cc(Nc3ccccc3)ccc21` (stereo not drawn) [Example 15, 3-({[7-(phenylamino)-3,4-dihydro-2H-1-benzopyran-4-yl]methyl}amino)pyridine-4-carboxylic acid]?
A: IC50 [1]: 1000 to 10000 nM; IC50 (JMJD2C): 100 to 1000 nM

Q: For `COc1cccc(N(C)c2ccc3c(c2)CCC[C@H]3CNc2cnccc2C(=O)O)c1` [Example 150, 3-({[(1R)-6-[(3-methoxyphenyl)(methyl)amino]-1,2,3,4-tetrahydronaphthalen-1-yl]methyl}amino)pyridine-4-carboxylic acid], which IC50 [1] is on record?
A: ≤ 100 nM

Q: And the IC50 (JMJD2C)?
A: 100 to 1000 nM

Q: Which IC50 [1] does the source give for `Cc1cccc(N(C)c2ccc3c(c2)OCC[C@H]3CNc2cnccc2C(=O)O)n1` [Example 148, 3-({[(4R)-7-[methyl(6-methylpyridin-2-yl)amino]-3,4-dihydro-2H-1-benzopyran-4-yl]methyl}amino)pyridine-4-carboxylic acid] here?
A: 100 to 1000 nM

Q: And the IC50 (JMJD2C)?
A: 100 to 1000 nM

Q: How did the IC50 [1] turn out when `O=C(O)c1ccncc1NC[C@@H]1CCOc2cc(-c3ccccc3C(F)(F)F)ccc21` [Example 46, 3-({[(4R)-7-[2-(trifluoromethyl)phenyl]-3,4-dihydro-2H-1-benzopyran-4-yl]methyl}amino)pyridine-4-carboxylic acid] was run?
A: ≤ 100 nM

Q: What about the IC50 (JMJD2C) of the same compound?
A: 100 to 1000 nM

Q: What does the source list for `CN(c1ccc(OC2CC2)cc1)c1ccc2c(c1)OCC[C@H]2CNc1cnccc1C(=O)O` [Example 213, 3-({[(4R)-7-[(4-cyclopropoxyphenyl)(methyl)amino]-3,4-dihydro-2H-1-benzopyran-4-yl]methyl}amino)pyridine-4-carboxylic acid]?
A: IC50 [1]: ≤ 100 nM; IC50 (JMJD2C): 100 to 1000 nM

Q: Which results are given for `CN(c1ccc(N2CCC2)cc1)c1ccc2c(c1)CCC[C@H]2CNc1cnccc1C(=O)O` [Example 180, 3-({[(1R)-6-{[4-(azetidin-1-yl)phenyl](methyl)amino}-1,2,3,4-tetrahydronaphthalen-1-yl]methyl}amino)pyridine-4-carboxylic acid]?
A: IC50 [1]: ≤ 100 nM; IC50 (JMJD2C): 100 to 1000 nM

Q: For `CC(C)Oc1ccc(N(C)c2ccc3c(c2)OCC[C@H]3CNc2cnccc2C(=O)O)cc1` [Example 210, 3-({[(4R)-7-{methyl[4-(propan-2-yloxy)phenyl]amino}-3,4-dihydro-2H-1-benzopyran-4-yl]methyl}amino)pyridine-4-carboxylic acid], which IC50 [1] is on record?
A: ≤ 100 nM

Q: What about the IC50 (JMJD2C) of the same compound?
A: 100 to 1000 nM

Q: For `CN(c1cc(F)cc(F)c1)c1ccc2c(c1)OCC[C@H]2CNc1cnccc1C(=O)O` [Example 109, 3-({[(4R)-7-[(3,5-difluorophenyl)(methyl)amino]-3,4-dihydro-2H-1-benzopyran-4-yl]methyl}amino)pyridine-4-carboxylic acid], which IC50 [1] is on record?
A: 100 to 1000 nM

Q: What about the IC50 (JMJD2C) of the same compound?
A: 100 to 1000 nM

Q: Which results are given for `CN1CC=C(c2ccc(N(C)c3ccc4c(c3)OCC[C@H]4CNc3cnccc3C(=O)O)cc2)CC1` [Example 204, 3-({[(4R)-7-{methyl[4-(1-methyl-1,2,3,6-tetrahydropyridin-4-yl)phenyl]amino}-3,4-dihydro-2H-1-benzopyran-4-yl]methyl}amino)pyridine-4-carboxylic acid]?
A: IC50 [1]: > 10000 nM; IC50 (JMJD2C): ≤ 100 nM

Q: `COc1cc2c(c(OC)c1)C(CNc1cnccc1C(=O)O)CCC2` (stereo not drawn) [Example 95, 3-{[(6,8-dimethoxy-1,2,3,4-tetrahydronaphthalen-1-yl)methyl]amino}pyridine-4-carboxylic acid] was tested. Which IC50 [1] did it give?
A: > 10000 nM

Q: What about the IC50 (JMJD2C) of the same compound?
A: 100 to 1000 nM

Q: Which IC50 [1] does the source give for `O=C(O)c1ccncc1NCC1CCCc2c1ccc1c2OCC1` (stereo not drawn) [Example 92, 3-({2H,3H,6H,7H,8H,9H-naphtho[1,2-b]furan-6-ylmethyl}amino)pyridine-4-carboxylic acid] here?
A: 1000 to 10000 nM

Q: What about the IC50 (JMJD2C) of the same compound?
A: 100 to 1000 nM

Q: How did the IC50 [1] turn out when `CN(c1ccc(N2CC(O)C2)cc1)c1ccc2c(c1)CCC[C@H]2CNc1cnccc1C(=O)O` [Example 200, 3-({[(1R)-6-{[4-(3-hydroxyazetidin-1-yl)phenyl](methyl)amino}-1,2,3,4-tetrahydronaphthalen-1-yl]methyl}amino)pyridine-4-carboxylic acid] was run?
A: 100 to 1000 nM

Q: And the IC50 (JMJD2C)?
A: 100 to 1000 nM

Q: `O=C(O)c1ccncc1NC[C@@H]1CCOc2cc(C3(c4ccccc4)CC3)ccc21` [Example 203, 3-({[(4R)-7-(1-phenylcyclopropyl)-3,4-dihydro-2H-1-benzopyran-4-yl]methyl}amino)pyridine-4-carboxylic acid] was tested. Which IC50 [1] did it give?
A: 100 to 1000 nM

Q: And the IC50 (JMJD2C)?
A: 100 to 1000 nM

Q: For `Cc1ccccc1Oc1ccc2c(c1)CCC[C@H]2CNc1cnccc1C(=O)O` [Example 58, 3-({[(1R)-6-(2-methylphenoxy)-1,2,3,4-tetrahydronaphthalen-1-yl]methyl}amino)pyridine-4-carboxylic acid], which IC50 [1] is on record?
A: ≤ 100 nM

Q: What about the IC50 (JMJD2C) of the same compound?
A: 100 to 1000 nM

Q: For `CN(c1ccncc1)c1ccc2c(c1)CCC[C@H]2CNc1cnccc1C(=O)O` [Example 173, 3-({[(1R)-6-[methyl(pyridin-4-yl)amino]-1,2,3,4-tetrahydronaphthalen-1-yl]methyl}amino)pyridine-4-carboxylic acid], which IC50 [1] is on record?
A: > 10000 nM

Q: And the IC50 (JMJD2C)?
A: ≤ 100 nM

Q: How did the IC50 [1] turn out when `Cc1ccccc1Sc1ccc2c(c1)CCC[C@H]2CNc1cnccc1C(=O)O` [Example 71, 3-({[(1R)-6-[(2-methylphenyl)sulfanyl]-1,2,3,4-tetrahydronaphthalen-1-yl]methyl}amino)pyridine-4-carboxylic acid] was run?
A: 100 to 1000 nM

Q: And the IC50 (JMJD2C)?
A: 1000 to 10000 nM

Q: For `CN(c1ccc(N2CCCC2)cc1)c1ccc2c(c1)CCC[C@H]2CNc1cnccc1C(=O)O` [Example 167, 3-({[(1R)-6-{methyl[4-(pyrrolidin-1-yl)phenyl]amino}-1,2,3,4-tetrahydronaphthalen-1-yl]methyl}amino)pyridine-4-carboxylic acid], which IC50 [1] is on record?
A: ≤ 100 nM

Q: And the IC50 (JMJD2C)?
A: 100 to 1000 nM

Q: Which IC50 [1] does the source give for `CN(c1ccc2c(c1)OCC[C@H]2CNc1cnccc1C(=O)O)c1ccc(Cl)cn1` [Example 152, 3-({[(4R)-7-[(5-chloropyridin-2-yl)(methyl)amino]-3,4-dihydro-2H-1-benzopyran-4-yl]methyl}amino)pyridine-4-carboxylic acid] here?
A: 100 to 1000 nM

Q: What about the IC50 (JMJD2C) of the same compound?
A: 100 to 1000 nM

Q: How did the IC50 [1] turn out when `COc1cc(N(C)c2ccc3c(c2)OCC[C@H]3CNc2cnccc2C(=O)O)ccc1F` [Example 112, 3-({[(4R)-7-[(4-fluoro-3-methoxyphenyl)(methyl)amino]-3,4-dihydro-2H-1-benzopyran-4-yl]methyl}amino)pyridine-4-carboxylic acid] was run?
A: 1000 to 10000 nM

Q: What about the IC50 (JMJD2C) of the same compound?
A: 100 to 1000 nM

Q: What does the source list for `CCCOc1ccc(N(C)c2ccc3c(c2)OCC[C@H]3CNc2cnccc2C(=O)O)cc1` [Example 212, 3-({[(4R)-7-[methyl(4-propoxyphenyl)amino]-3,4-dihydro-2H-1-benzopyran-4-yl]methyl}amino)pyridine-4-carboxylic acid]?
A: IC50 [1]: ≤ 100 nM; IC50 (JMJD2C): 100 to 1000 nM

Q: For `CN(c1cccc(C#N)c1)c1ccc2c(c1)CCC[C@H]2CNc1cnccc1C(=O)O` [Example 115, 3-({[(1R)-6-[(3-cyanophenyl)(methyl)amino]-1,2,3,4-tetrahydronaphthalen-1-yl]methyl}amino)pyridine-4-carboxylic acid], which IC50 [1] is on record?
A: 100 to 1000 nM

Q: And the IC50 (JMJD2C)?
A: 100 to 1000 nM

Q: Which IC50 [1] does the source give for `Cc1cccc(N(C)c2ccc3c(c2)OCC[C@H]3CNc2cnccc2C(=O)O)c1` [Example 105, 3-({[(4R)-7-[methyl(3-methylphenyl)amino]-3,4-dihydro-2H-1-benzopyran-4-yl]methyl}amino)pyridine-4-carboxylic acid] here?
A: ≤ 100 nM

Q: What about the IC50 (JMJD2C) of the same compound?
A: 100 to 1000 nM

Q: How did the IC50 [1] turn out when `Cc1cccc(S(=O)(=O)c2ccc3c(c2)CCC[C@H]3CNc2cnccc2C(=O)O)c1` [Example 86, 3-({[(1R)-6-(3-methylbenzenesulfonyl)-1,2,3,4-tetrahydronaphthalen-1-yl]methyl}amino)pyridine-4-carboxylic acid] was run?
A: > 10000 nM

Q: What about the IC50 (JMJD2C) of the same compound?
A: 100 to 1000 nM
